Results as given in ChEMBL document CHEMBL2331425, “Triazolo and imidazo dihydropyrazolopyrimidine potassium channel antagonists” (Bioorg Med Chem Lett, 2013).

What was measured:
[1] = target: T1, Potassium voltage-gated channel subfamily A member 5 (Homo sapiens, UniProt P22460); assay: Antagonist activity at human Kv1.5 expressed in mouse L929 cells assessed as inhibition of delayed rectifier repolarization current by patch clamp assay; format: cell-based
hERG (KCNH2) = hERG (KCNH2) (Homo sapiens, UniProt Q12809); assay: Inhibition of human ERG current in HEK293 cells at 10 uM by patch clamp method relative to control; format: cell-based; conditions: HEK293 cells expressing human ERG
[2] = target: T2, Nuclear receptor subfamily 1 group I member 2 (Homo sapiens, UniProt O75469); assay: Transactivation of PXR (unknown origin)
T2 sequence (O75469 whole entry): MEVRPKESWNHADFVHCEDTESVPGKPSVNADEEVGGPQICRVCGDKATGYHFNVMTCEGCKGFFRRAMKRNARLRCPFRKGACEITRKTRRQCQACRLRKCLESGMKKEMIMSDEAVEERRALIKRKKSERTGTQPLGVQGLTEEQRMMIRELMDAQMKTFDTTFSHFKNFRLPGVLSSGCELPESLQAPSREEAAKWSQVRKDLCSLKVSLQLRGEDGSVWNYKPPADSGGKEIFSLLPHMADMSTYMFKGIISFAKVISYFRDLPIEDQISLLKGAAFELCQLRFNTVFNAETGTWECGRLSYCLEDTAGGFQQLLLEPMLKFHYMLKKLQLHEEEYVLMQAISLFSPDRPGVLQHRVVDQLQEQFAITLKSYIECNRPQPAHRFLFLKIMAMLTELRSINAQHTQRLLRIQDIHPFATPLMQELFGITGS

[3] = Clearance in Sprague-Dawley rat at 1 mg/kg, iv; format: ADME, organism-based; set-up: dose 1 mg/kg, route intravenous; conditions: in vivo
[4] = Half life in Sprague-Dawley rat at 1 mg/kg, iv; format: ADME, organism-based; set-up: dose 1 mg/kg, route intravenous; conditions: in vivo
[5] = target: T1, Potassium voltage-gated channel subfamily A member 5; assay: Antagonist activity at human Kv1.5 expressed in mouse L929 cells assessed as inhibition of delayed rectifier repolarization current at 0.3 uM by patch clamp assay relative to control; format: cell-based
[6] = Inhibition of sodium channel (unknown origin); set-up: species or system Homo sapiens
[7] = target: Voltage-gated L-type calcium channel (Homo sapiens, UniProt Q13936+Q13698+Q01668+O60840); assay: Inhibition of L-type calcium channel (unknown origin)
[8] = Plasma concentration in Sprague-Dawley rat at 0.3 mg/kg, iv administered as 5 mins infusion measured at 5 mins; format: ADME, organism-based; set-up: dose 0.3 mg/kg, route intravenous
Cytochrome P450 2D6 = Cytochrome P450 2D6 (Homo sapiens, UniProt P10635); assay: Inhibition of CYP2D6 (unknown origin); format: ADME
Rattus norvegicus [9] = assay: Antiarrhythmic activity in Sprague-Dawley rat assessed as decrease in blood pressure at 0.3 mg/kg, iv administered as 5 mins infusion measured after 5 mins; format: functional; set-up: scale not given: the % may be the effect or the level left
Rattus norvegicus [10] = assay: Antiarrhythmic activity in Sprague-Dawley rat assessed as decrease in QT interval at 0.3 mg/kg, iv administered as 5 mins infusion measured after 5 mins relative to control; format: functional, Heart; set-up: scale not given: the % may be the effect or the level left
Cytochrome P450 2C9 = Cytochrome P450 2C9 (Homo sapiens, UniProt P11712); assay: Inhibition of CYP2C9 (unknown origin); format: ADME
Cytochrome P450 3A4 = Cytochrome P450 3A4 (Homo sapiens, UniProt P08684); assay: Inhibition of CYP3A4 (unknown origin); format: ADME
[11] = Plasma concentration in Sprague-Dawley rat at 0.3 mg/kg, iv administered as 5 mins infusion measured after 10 mins; format: ADME, organism-based; set-up: dose 0.3 mg/kg, route intravenous
Cytochrome P450 2C19 = Cytochrome P450 2C19 (Homo sapiens, UniProt P33261); assay: Inhibition of CYP2C19 (unknown origin); format: ADME
[12] = Drug uptake in Sprague-Dawley rat brain at 0.3 mg/kg, iv administered as 5 mins infusion measured after 10 mins; format: ADME, organism-based; set-up: dose 0.3 mg/kg, route intravenous; conditions: read-out: Drug uptake
Rattus norvegicus [13] = assay: Antiarrhythmic activity in Sprague-Dawley rat assessed as increase in heart rate at 0.3 mg/kg, iv administered as 5 mins infusion measured after 5 mins relative to control; format: functional
Rattus norvegicus [14] = assay: Antiarrhythmic activity in Sprague-Dawley rat assessed as decrease in ventricular effective refractory period at 0.3 mg/kg, iv administered as 5 mins infusion measured after 5 mins relative to control; format: functional, Heart; set-up: scale not given: the % may be the effect or the level left

Chain of hERG (KCNH2) (Q12809 whole entry): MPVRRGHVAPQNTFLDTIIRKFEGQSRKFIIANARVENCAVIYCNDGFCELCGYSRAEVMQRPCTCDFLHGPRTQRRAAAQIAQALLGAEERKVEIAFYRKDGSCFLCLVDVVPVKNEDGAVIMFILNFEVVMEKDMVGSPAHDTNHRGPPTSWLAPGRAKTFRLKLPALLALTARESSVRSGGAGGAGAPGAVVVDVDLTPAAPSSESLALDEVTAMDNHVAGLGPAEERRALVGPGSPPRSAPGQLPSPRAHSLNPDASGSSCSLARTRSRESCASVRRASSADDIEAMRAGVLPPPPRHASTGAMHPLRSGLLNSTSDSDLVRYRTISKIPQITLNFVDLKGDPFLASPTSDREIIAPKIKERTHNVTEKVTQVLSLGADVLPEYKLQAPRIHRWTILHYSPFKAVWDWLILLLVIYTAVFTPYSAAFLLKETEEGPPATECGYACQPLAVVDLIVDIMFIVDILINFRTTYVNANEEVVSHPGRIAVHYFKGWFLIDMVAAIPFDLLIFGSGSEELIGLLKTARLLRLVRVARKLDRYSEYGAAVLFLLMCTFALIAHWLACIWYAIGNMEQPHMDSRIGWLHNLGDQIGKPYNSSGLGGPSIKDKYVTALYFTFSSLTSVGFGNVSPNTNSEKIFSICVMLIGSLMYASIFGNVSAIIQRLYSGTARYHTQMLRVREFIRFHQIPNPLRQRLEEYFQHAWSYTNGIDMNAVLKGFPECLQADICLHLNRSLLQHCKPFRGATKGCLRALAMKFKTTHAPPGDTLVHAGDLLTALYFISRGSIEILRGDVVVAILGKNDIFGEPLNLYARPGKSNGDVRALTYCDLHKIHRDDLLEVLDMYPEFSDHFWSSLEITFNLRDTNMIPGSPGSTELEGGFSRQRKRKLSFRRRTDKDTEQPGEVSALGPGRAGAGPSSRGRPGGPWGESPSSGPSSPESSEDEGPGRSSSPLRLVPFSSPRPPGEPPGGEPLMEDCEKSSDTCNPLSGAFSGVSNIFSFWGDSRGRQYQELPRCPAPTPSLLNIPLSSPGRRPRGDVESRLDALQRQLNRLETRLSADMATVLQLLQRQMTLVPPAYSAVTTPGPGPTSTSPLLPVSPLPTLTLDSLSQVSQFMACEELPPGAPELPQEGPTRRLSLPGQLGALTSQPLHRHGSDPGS
T1 sequence (P22460 whole entry): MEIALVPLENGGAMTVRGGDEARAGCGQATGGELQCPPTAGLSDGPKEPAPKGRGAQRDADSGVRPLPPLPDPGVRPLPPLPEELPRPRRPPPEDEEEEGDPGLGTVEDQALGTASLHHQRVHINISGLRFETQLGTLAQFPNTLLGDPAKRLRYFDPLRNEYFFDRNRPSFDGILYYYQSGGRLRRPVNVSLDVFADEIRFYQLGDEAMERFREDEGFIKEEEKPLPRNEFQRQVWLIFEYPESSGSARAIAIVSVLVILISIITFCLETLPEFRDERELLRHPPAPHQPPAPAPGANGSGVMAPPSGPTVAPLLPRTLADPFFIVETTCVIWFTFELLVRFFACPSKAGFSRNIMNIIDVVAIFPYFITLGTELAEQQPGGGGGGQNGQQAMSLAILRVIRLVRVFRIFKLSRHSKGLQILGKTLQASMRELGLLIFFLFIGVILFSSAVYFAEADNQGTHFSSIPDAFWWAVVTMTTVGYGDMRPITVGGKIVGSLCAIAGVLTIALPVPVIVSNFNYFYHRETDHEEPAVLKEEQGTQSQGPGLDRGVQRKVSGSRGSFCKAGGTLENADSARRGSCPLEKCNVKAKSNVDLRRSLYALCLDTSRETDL
Chain of Cytochrome P450 3A4 (P08684 whole entry, the tested form may be a part): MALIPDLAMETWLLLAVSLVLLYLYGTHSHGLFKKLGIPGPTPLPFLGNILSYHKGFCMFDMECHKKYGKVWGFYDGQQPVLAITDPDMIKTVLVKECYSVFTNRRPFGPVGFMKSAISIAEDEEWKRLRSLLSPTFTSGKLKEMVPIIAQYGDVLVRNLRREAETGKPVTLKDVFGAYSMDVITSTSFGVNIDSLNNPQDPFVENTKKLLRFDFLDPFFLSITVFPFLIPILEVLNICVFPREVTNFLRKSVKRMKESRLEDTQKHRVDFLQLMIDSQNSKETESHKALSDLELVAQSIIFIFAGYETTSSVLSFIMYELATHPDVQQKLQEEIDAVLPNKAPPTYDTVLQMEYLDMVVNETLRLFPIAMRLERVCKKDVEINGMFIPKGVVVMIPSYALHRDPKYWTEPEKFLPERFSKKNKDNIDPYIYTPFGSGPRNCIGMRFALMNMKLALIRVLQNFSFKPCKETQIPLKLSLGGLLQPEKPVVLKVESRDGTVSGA
Chain of Cytochrome P450 2D6 (P10635 whole entry, the tested form may be a part): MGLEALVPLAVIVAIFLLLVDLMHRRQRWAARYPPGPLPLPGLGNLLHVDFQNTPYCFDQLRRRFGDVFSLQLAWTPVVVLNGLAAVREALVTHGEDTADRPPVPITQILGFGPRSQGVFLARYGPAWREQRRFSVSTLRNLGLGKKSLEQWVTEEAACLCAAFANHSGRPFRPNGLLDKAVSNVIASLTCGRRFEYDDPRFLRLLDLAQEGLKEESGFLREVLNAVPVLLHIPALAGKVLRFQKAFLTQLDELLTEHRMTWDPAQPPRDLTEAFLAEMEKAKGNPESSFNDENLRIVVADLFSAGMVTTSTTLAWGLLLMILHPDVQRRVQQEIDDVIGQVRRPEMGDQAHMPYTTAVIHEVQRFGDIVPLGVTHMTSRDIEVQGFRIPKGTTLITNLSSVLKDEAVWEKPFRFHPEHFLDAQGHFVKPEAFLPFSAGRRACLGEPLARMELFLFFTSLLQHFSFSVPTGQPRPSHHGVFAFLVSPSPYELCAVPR
Chain of Cytochrome P450 2C9 (P11712 whole entry): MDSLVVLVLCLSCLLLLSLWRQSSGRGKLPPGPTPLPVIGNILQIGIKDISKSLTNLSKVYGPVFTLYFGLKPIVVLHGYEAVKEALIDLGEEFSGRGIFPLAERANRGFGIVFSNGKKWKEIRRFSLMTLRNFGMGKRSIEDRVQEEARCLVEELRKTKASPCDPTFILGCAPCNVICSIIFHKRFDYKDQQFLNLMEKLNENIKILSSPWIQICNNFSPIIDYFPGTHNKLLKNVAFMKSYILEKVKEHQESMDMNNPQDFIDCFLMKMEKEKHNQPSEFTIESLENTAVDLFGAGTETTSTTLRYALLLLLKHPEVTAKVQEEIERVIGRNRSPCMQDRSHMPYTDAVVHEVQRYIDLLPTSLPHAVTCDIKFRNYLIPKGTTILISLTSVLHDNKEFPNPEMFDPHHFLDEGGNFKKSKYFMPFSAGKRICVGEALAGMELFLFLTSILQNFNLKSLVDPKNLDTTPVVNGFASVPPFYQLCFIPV
Chain of Cytochrome P450 2C19 (P33261 whole entry, the tested form may be a part): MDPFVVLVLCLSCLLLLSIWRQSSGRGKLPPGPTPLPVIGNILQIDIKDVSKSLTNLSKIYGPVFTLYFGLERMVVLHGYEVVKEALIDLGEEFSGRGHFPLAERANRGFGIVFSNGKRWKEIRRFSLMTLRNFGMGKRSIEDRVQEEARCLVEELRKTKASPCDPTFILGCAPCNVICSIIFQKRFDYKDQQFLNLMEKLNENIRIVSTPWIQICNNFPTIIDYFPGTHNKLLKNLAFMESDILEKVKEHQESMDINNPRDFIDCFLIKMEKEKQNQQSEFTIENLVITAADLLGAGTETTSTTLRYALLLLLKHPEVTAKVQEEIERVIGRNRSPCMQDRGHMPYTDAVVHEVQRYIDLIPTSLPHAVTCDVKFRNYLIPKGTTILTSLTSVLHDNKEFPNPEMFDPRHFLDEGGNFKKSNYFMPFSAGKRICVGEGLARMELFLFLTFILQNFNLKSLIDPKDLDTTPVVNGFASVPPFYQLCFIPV

CC1=C(c2ncnn2C(C)C)[C@@H](c2ccc(Cl)c(Cl)c2)n2nccc2N1
IC50 [1]: 89 nM
inhibition at 10 µM (hERG (KCNH2)): 26%

CCOCCn1ccnc1C1=C(C)Nc2cc(C(F)(F)F)nn2[C@@H]1c1ccc(Cl)c(Cl)c1
EC20 [2]: 640 nM
IC50 [1]: 98 nM
clearance [3]: 45 mL/min/kg
half-life [4]: 36 min

CC1=C(c2ncn(-c3ccc(C)cc3)n2)[C@@H](c2ccc(Cl)c(Cl)c2)n2nc(C)cc2N1
inhibition [5]: 14%

COc1cccc(-n2ncnc2C2=C(C)Nc3cc(C(F)(F)F)nn3[C@@H]2c2ccc(Cl)c(Cl)c2)n1
EC20 [2]: 960 nM
IC50 [1]: 87 nM
inhibition at 10 µM (hERG (KCNH2)): 98%

CC1=C(c2ncnn2-c2cccc(F)n2)[C@@H](c2ccc(Cl)c(Cl)c2)n2nc(C(F)(F)F)cc2N1
EC20 [2]: 70 nM
IC50 [1]: 256 nM

CC1=C(c2ncnn2-c2ccc(F)cc2)[C@@H](c2ccc(Cl)c(Cl)c2)n2nccc2N1
IC50 [1]: 115 nM

CC1=C(C(=O)N2CCN(c3ccc(F)cc3)CC2)[C@@H](c2ccc(Cl)c(Cl)c2)n2nccc2N1
clearance [3]: 134 mL/min/kg
half-life [4]: 36 min

CC1=C(c2ncnn2-c2ccccn2)[C@@H](c2ccc(Cl)c(Cl)c2)n2nc(C(F)(F)F)cc2N1
inhibition [5]: 11%

CCOc1cccc(-n2ncnc2C2=C(C)Nc3cc(C(F)(F)F)nn3[C@@H]2c2ccc(Cl)c(Cl)c2)n1
EC20 [2]: 1100 nM
IC50 [1]: 223 nM

COc1cccc(-n2cnc(C3=C(C)Nc4cc(C)nn4[C@@H]3c3ccc(Cl)c(Cl)c3)n2)c1
inhibition [5]: 14%

CC1=C(c2ncnn2-c2cccc(F)c2)[C@@H](c2ccc(Cl)c(Cl)c2)n2nccc2N1
IC50 [1]: 97 nM

CC1=C(c2ncnn2C2CCC2)[C@@H](c2ccc(Cl)c(Cl)c2)n2nc(C(C)(C)C)cc2N1
IC50 [1]: 283 nM

CC1=C(c2ncnn2CCCC(F)(F)F)[C@@H](c2ccc(Cl)c(Cl)c2)n2nccc2N1
IC50 [1]: 103 nM

COc1ccc(-n2cnc(C3=C(C)Nc4cc(C)nn4[C@@H]3c3ccc(Cl)c(Cl)c3)n2)cc1
inhibition [5]: 5%

COCc1cc2n(n1)[C@H](c1ccc(Cl)c(Cl)c1)C(c1ncnn1C1CCC1)=C(C)N2
inhibition [5]: 25%

CC1=C(c2ncn(-c3ccccc3F)n2)[C@@H](c2ccc(Cl)c(Cl)c2)n2nc(C)cc2N1
inhibition [5]: 23%

COc1ccccc1-n1cnc(C2=C(C)Nc3cc(C)nn3[C@@H]2c2ccc(Cl)c(Cl)c2)n1
inhibition [5]: 4%

CC1=C(c2ncnn2CC(F)(F)F)[C@@H](c2ccc(Cl)c(Cl)c2)n2nccc2N1
IC50 [1]: 200 nM

CC1=C(c2ncnn2CCC(F)(F)F)[C@@H](c2ccc(Cl)c(Cl)c2)n2nccc2N1
IC50 [1]: 151 nM

CC1=C(c2ncnn2-c2ccc(C)cc2)[C@@H](c2ccc(Cl)c(Cl)c2)n2nc(C)cc2N1
inhibition [5]: 25%

CC1=C(c2ncnn2C2CCCCC2)[C@@H](c2ccc(Cl)c(Cl)c2)n2nc(C)cc2N1
IC50 [1]: 127 nM

CC1=C(c2ncn[nH]2)[C@@H](c2ccc(Cl)c(Cl)c2)n2nccc2N1
inhibition [5]: 8%

CC1=C(c2ncnn2C(C)(C)C)[C@@H](c2ccc(Cl)c(Cl)c2)n2nccc2N1
IC50 [1]: 223 nM

CC1=C(c2ncn(-c3ccccc3C)n2)[C@@H](c2ccc(Cl)c(Cl)c2)n2nc(C)cc2N1
IC50 [1]: 722 nM

CC1=C(c2ncnn2C2CCC2)[C@@H](c2ccc(Cl)c(Cl)c2)n2nc(C)cc2N1
IC50 [1]: 94 nM
inhibition at 10 µM (hERG (KCNH2)): 40%
clearance [3]: 101 mL/min/kg
half-life [4]: 36 min

CC1=C(c2ncnn2C2CCC2)[C@@H](c2ccc(Cl)c(Cl)c2)n2nccc2N1
IC50 [1]: 48 nM

CC1=C(c2ncnn2-c2ccc(C)cn2)[C@@H](c2ccc(Cl)c(Cl)c2)n2nc(C(F)(F)F)cc2N1
IC50 [1]: 389 nM

CC1=C(c2ncnn2-c2cccc(Cl)n2)[C@@H](c2ccc(Cl)c(Cl)c2)n2nc(C(F)(F)F)cc2N1
IC50 [1]: 190 nM

CC1=C(c2ncnn2CC2CC2)[C@@H](c2ccc(Cl)c(Cl)c2)n2nccc2N1
IC50 [1]: 229 nM

CC1=C(c2ncnn2C2CCCCC2)[C@@H](c2ccc(Cl)c(Cl)c2)n2nccc2N1
IC50 [1]: 59 nM
inhibition at 10 µM (hERG (KCNH2)): 87%

CC1=C(c2nccn2C(C)C)[C@@H](c2ccc(Cl)c(Cl)c2)n2nc(C(F)(F)F)cc2N1
EC20 [2]: 110 nM
IC50 [1]: 204 nM
clearance [3]: 63 mL/min/kg
half-life [4]: 54 min

CC1=C(c2ncnn2-c2cccc(C)n2)[C@@H](c2ccc(Cl)c(Cl)c2)n2nc(C(F)(F)F)cc2N1
EC20 [2]: 440 nM
IC50 [1]: 211 nM

CC1=C(c2ncnn2-c2cc(C)ccn2)[C@@H](c2ccc(Cl)c(Cl)c2)n2nc(C(F)(F)F)cc2N1
EC20 [2]: 440 nM
IC50 [1]: 410 nM

CC1=C(c2ncnn2-c2ccc(C)cc2)[C@@H](c2ccc(Cl)c(Cl)c2)n2nccc2N1
IC50 [1]: 80 nM

CC1=C(c2ncnn2C2CCC(C(F)(F)F)CC2)[C@@H](c2ccc(Cl)c(Cl)c2)n2nc(C(F)(F)F)cc2N1 (single isomer, unassigned; isomer 1)
IC50 [6]: 46000 nM
EC20 [2]: 5000 nM
IC50 [1]: 133 nM
IC50 [7]: 5200 nM
concentration at 5 min [8]: 1600 nM
INH (Cytochrome P450 2D6): 22 µM
Activity (Rattus norvegicus [9]): 28%
inhibition at 10 µM (hERG (KCNH2)): 38%
Activity (Rattus norvegicus [10]): 8%
INH (Cytochrome P450 2C9): 7 µM
INH (Cytochrome P450 3A4): 40 µM
concentration at 10 min [11]: 430 nM
INH (Cytochrome P450 2C19): 6 µM
clearance [3]: 29 mL/min/kg
concentration at 10 min [12]: 30 nM
Activity (Rattus norvegicus [13]): 6%
half-life [4]: 72 min
Activity (Rattus norvegicus [14]): 25%

CCn1ccnc1C1=C(C)Nc2cc(C(F)(F)F)nn2[C@@H]1c1ccc(Cl)c(Cl)c1
EC20 [2]: 110 nM
IC50 [1]: 128 nM

CCCn1ncnc1C1=C(C)Nc2ccnn2[C@@H]1c1ccc(Cl)c(Cl)c1
IC50 [1]: 102 nM

COc1ccccc1-n1ncnc1C1=C(C)Nc2ccnn2[C@@H]1c1ccc(Cl)c(Cl)c1
IC50 [1]: 116 nM

CC1=C(c2ncnn2CCO)[C@@H](c2ccc(Cl)c(Cl)c2)n2nccc2N1
inhibition [5]: 6%

CC1=C(c2ncnn2-c2cccc(C(F)(F)F)n2)[C@@H](c2ccc(Cl)c(Cl)c2)n2nc(C(F)(F)F)cc2N1
EC20 [2]: 140 nM
IC50 [1]: 96 nM

CC1=C(c2ncnn2C2CCC2)[C@@H](c2ccc(Cl)c(Cl)c2)n2nc(C(F)(F)F)cc2N1
IC50 [1]: 165 nM

CC1=C(c2ncnn2Cc2ccccc2)[C@@H](c2ccc(Cl)c(Cl)c2)n2nccc2N1
IC50 [1]: 135 nM

CCn1ncnc1C1=C(C)Nc2ccnn2[C@@H]1c1ccc(Cl)c(Cl)c1
IC50 [1]: 191 nM

CC1=C(c2ncnn2-c2ccccc2F)[C@@H](c2ccc(Cl)c(Cl)c2)n2nccc2N1
IC50 [1]: 74 nM
